Measured values reported in US8580812B2, “Heteroaryl amide analogues as P2X7 antagonists” (H. Lundbeck A/S, priority 2007, dated 2013).

Target: T1, P2X7 (Homo sapiens, UniProt Q99572)
T1 construct: host or cells: SH-SY5Y
T1 sequence (Q99572 1-595): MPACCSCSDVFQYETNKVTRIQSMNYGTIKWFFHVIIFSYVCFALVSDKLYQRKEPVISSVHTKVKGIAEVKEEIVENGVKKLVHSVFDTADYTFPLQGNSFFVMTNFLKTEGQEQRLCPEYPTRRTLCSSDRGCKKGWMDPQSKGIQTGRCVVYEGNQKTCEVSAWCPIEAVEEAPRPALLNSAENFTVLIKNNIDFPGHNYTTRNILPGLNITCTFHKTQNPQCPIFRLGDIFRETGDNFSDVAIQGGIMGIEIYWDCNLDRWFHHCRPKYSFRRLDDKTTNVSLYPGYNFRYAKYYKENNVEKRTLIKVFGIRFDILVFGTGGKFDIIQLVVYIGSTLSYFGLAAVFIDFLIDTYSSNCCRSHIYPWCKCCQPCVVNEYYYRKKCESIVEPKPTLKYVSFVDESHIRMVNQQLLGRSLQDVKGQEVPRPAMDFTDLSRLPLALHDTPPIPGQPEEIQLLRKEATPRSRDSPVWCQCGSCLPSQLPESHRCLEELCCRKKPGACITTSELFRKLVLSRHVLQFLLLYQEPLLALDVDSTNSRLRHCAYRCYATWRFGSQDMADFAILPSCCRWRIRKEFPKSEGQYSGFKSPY
Assay: High Throughput P2X7 Calcium Mobilization Assay (Example 4A), antagonist activity
Type: cell-based
Details: SH-SY5Y cells, 50% decrease in fluorescence response of cells exposed to 80 μM BzATP
Description: A. High Throughput P2X7 Calcium Mobilization Assay
SH-SY5Y cells, ATCC Number CRL-2266, (American Type Culture Collection, Manassas, Va.) are cultured under DMEM/High medium supplemented with 10% FBS, and 10 mM HEPES (Invitrogen Corp., Carlsbad, Calif.) in 5% CO2 and at 37° C. One day prior to the experiment, cells are plated at a density of 100,000 cells/well in a 96 well black/clear TC plate (Corning® Costar®, Sigma-Aldrich Co., St. Louis, Mo.). At the beginning of the experiment, the culture medium is removed and cells are incubated with 50 μL of 2.3 μM Fluo-4 AM dye (Invitrogen Corp.) in the assay solution (5 mM KCl, 9.6 mM NaH2PO4.H2O, 25 mM HEPES, 280 mM Sucrose, 5 mM Glucose, and 0.5 mM CaCl2; pH is adjusted to 7.4 with NaOH) for an hour at 37° C. After one hour dye incubation, wells are rinsed once with 50 μL assay solution, and are then incubated for an hour at room temperature with 100 μL assay solution containing the test compound. The final concentration of test compound generally ranges from 1 to 2500 nM; for positive control cells, no test compound is added. After the one hour incubation, plates are transferred to a FLIPR^TETRA instrument (Molecular Devices, Sunnyvale, Calif.) for calcium mobilization analysis.
For determination of antagonist activity, 50 μL of P2X7 agonist (2′(3′)-O-(4-benzoyl-benzoyl)adenosine 5′-triphosephate (BzATP; Sigma-Aldrich) in the assay solution is transferred using the FLIPR into the plate, such that the final agonist concentration is 80 μM (about EC50). In negative control cells, 50 μL of assay solution without agonist is added at this stage. The peak fluorescence signal over a 2 minute period is then measured.
First, the average maximum relative fluorescent unit (RFU) response from the negative control wells (no agonist) is subtracted from the maximum response detected for each of the other experimental wells. Second, average maximum RFU response is calculated for the positive control wells (agonist wells). Then, percent inhibition for each compound tested is calculated using the equation: Percent Inhibition=100−100×(Peak Signal in Test Cells/Peak Signal in Control Cells) The % inhibition data is plotted as a function of test compound concentration and test compound IC50 is determined using, for example, KALEIDAGRAPH software (Synergy Software, Reading, Pa.) best fit of the data to the equation: y=m1*(1/(1+(m2/m0)^m3)) where y is the percent inhibition, m0 is […], m1 is the maximum RFU, m2 corresponds to the test compound IC50 (the concentration required to provide a 50% decrease, relative to the response observed in the presence of agonist and without antagonist) and m3 is the Hill coefficient.

IC50 [µM] | SMILES
≤ 2 | CN(CC(F)(F)F)C(=O)c1cc2c(C(=O)NCC34CC5CC(CC(C5)C3)C4)cccn2n1 [Compound 76, 4-N-(adamantan-1-ylmethyl)-2-N-methyl-2-N-(2,2,2-trifluoroethyl)pyrazolo [1,5-a]pyridine-2,4-dicarboxamide]
≤ 2 | CC(C)CC(CNC(=O)c1cccn2nc(C(=O)N3CCOC(C)(C)C3)cc12)c1ccc(C(F)(F)F)cc1 (stereo not shown) [Compound 101, 2-[(2,2-dimethylmorpholin-4-yl)carbonyl]-N-{4-methyl-2-[4-(trifluoromethyl)phenyl]pentyl}pyrazolo[1,5-a]pyridine-4-carboxamide]
≤ 2 | CC(C)CC(CNC(=O)c1cccn2nc(C(=O)N3CCOCC3)cc12)c1ccc(C(F)(F)F)cc1 (stereo not shown) [Compound 87, N-{4-methyl-2-[4-(trifluoromethyl)phenyl]pentyl}-2-(morpholin-4-ylcarbonyl)pyrazolo [1,5-a]pyridine-4-carboxamide]
≤ 2 | CC(CC(=O)O)c1cc2c(C(=O)NCC34CC5CC(CC(C5)C3)C4)cccn2n1 (stereo not shown) [Compound 105, 3-{4-[(adamantan-1-ylmethyl)carbamoyl]pyrazolo[1,5-a]pyridin-2-yl}butanoic acid]

The remaining lines, values behind:

SMILES | IC50 [µM]
CN(Cc1cccc(F)c1)C(=O)c1cc2c(C(=O)NCC34CC5CC(CC(C5)C3)C4)cccn2n1 [Compound 66, 4-N-(adamantan-1-ylmethyl)-2-N-(3-fluorobenzyl)-2-N-methylpyrazolo[1,5-a]pyridine-2,4-dicarboxamide] | ≤ 2
CN(Cc1ccccn1)Cc1cc2c(C(=O)NCC34CC5CC(CC(C5)C3)C4)cccn2n1 [Compound 53, N-(adamantan-1-ylmethyl)-2-{[methyl(pyridin-2-ylmethyl)amino]methyl} pyrazolo[1,5-a]pyridine-4-carboxamide] | ≤ 2
N[C@@H]1CCN(C(=O)c2cc3c(C(=O)NCC4(c5cccnc5)CCCCC4)cccn3n2)C1 [Compound 57, 2-{[(3R)-3-aminopyrrolidin-1-yl]carbonyl}-N-[(1-pyridin-3-ylcyclohexyl)methyl] pyrazolo[1,5-a]pyridine-4-carboxamide] | ≤ 2
CCOC(=O)CN(C)C(=O)c1cc2c(C(=O)NCC34CC5CC(CC(C5)C3)C4)cccn2n1 [Compound 23, ethyl N-({4-[(adamantan-1-ylmethyl)carbamoyl]pyrazolo[1,5-a]pyridin-2-yl}carbonyl)-N-methylglycinate] | ≤ 2
CCOC(=O)CN(C)Cc1cc2c(C(=O)NCC34CC5CC(CC(C5)C3)C4)cccn2n1 [Compound 29, ethyl N-({4-[(adamantan-1-ylmethyl)carbamoyl]pyrazolo[1,5-a]pyridin-2-yl}methyl)-N-methylglycinate] | ≤ 2
O=C1NCC2(CCN(C(=O)c3cc4c(C(=O)NCC56CC7CC(CC(C7)C5)C6)cccn4n3)CC2)O1 [Compound 36, N-(adamantan-1-ylmethyl)-2-[(2-oxo-1-oxa-3,8-diazaspiro[4.5]dec-8-yl)carbonyl]pyrazolo [1,5-a]pyridine-4-carboxamide] | ≤ 2
CN(Cc1ccccc1F)C(=O)c1cc2c(C(=O)NCC34CC5CC(CC(C5)C3)C4)cccn2n1 [Compound 65, 4-N-(adamantan-1-ylmethyl)-2-N-(2-fluorobenzyl)-2-N-methylpyrazolo[1,5-a]pyridine-2,4-dicarboxamide] | ≤ 2
CC(C)N[C@@H]1CCN(C(=O)c2cc3c(C(=O)NCC45CC6CC(CC(C6)C4)C5)cccn3n2)C1 [Compound 16, N-(adamantan-1-ylmethyl)-2-{[(3R)-3-(isopropylamino)pyrrolidin-1-yl]carbonyl}pyrazolo [l,5-a]pyridine-4-carboxamide] | ≤ 2
O=C(NC1CCOCC1)c1cc2c(C(=O)NCC34CC5CC(CC(C5)C3)C4)cccn2n1 [Compound 35, 4-N-(adamantan-1-ylmethyl)-2-N-(tetrahydro-2H-pyran-4-yl)pyrazolo[1,5-a]pyridine-2,4-dicarboxamide] | ≤ 2
